These results are taken from US10604524B2, “Pyrropyrimidine compounds as MNKs inhibitors” (LIFEARC, priority 2015, dated 2020).

Assay [1] has as its system B16 melanoma lung metastases. Conditions: in vivo; cited from earlier work.
In assay [2] the test system is eIF4E phosphorylation. Conditions: after oral administration, normal mouse tissues and xenografted tumors; cited from earlier work.
The test system of assay [3] is HCT116 xenograft. Conditions: HCT116 xenograft models; cited from earlier work.
Assay [4] deals with keratinocytes. The settings on record: cited from earlier work.
In assay [5] the test system is monocytic cell line THP-1. Conditions: cited from earlier work.
For assay [6], the system named is phosphorylation of eIF4E at ser209 in MV4.11 cell line. Description: cells. Type of assay: cell-based. The settings on record: Homo sapiens; MV4.11 cells, 1.5 hr compound incubation, average of at least 2 independent experiments; read-out: plc50 elF4E (converted). As to the method:
MNK activity in cells was measured by monitoring the phosphorylation of eIF4E at ser209, the known endogenous substrate of MNK1/2, in cell lysates. […] The assay detection is based on the formation of sandwich antibody complexes coupled to donor and acceptor beads. Excitation at 680 nm causes the transfer of a singlet oxygen species between donor and acceptor beads when they are in close proximity by binding to the analyte […], which results in the emission of light at 520-620 nm.
Cells were then lysed and the Aphascreen Surefire protocol followed according to manufacturer's recommendations. 8 ul Acceptor beads (1:50 dilution in kit activation buffer) was added to lysate, shaken 150 rpm for 2 min and incubated for 1.5 hr at room temperature. 3 ul Donor beads (1:20 dilution in kit dilution buffer) were then added, shaken 150 rpm for 2 min and incubated for a further 1.5 hr at room temperature after which the plates were read on Pherastar FS using Alphascreen optic module.
Data were normalised relative to untreated DMSO only controls and curves repeated in duplicate within experiments. Data reported are averages of at least 2 independent experiments.

For assay [7], the target named is Full-length human MNK1 (Homo sapiens, UniProt Q9BUB5, T385D). Description: MNK1 biochemical IC50 assay (Caliper mobility shift).
Assay [8] deals with Full-length human MNK2 (Homo sapiens, UniProt Q9HBH9, T379D). Description: MNK2 biochemical IC50 assay (Caliper mobility shift).
Full-length human MNK2, sequence (Q9HBH9 whole entry T379D): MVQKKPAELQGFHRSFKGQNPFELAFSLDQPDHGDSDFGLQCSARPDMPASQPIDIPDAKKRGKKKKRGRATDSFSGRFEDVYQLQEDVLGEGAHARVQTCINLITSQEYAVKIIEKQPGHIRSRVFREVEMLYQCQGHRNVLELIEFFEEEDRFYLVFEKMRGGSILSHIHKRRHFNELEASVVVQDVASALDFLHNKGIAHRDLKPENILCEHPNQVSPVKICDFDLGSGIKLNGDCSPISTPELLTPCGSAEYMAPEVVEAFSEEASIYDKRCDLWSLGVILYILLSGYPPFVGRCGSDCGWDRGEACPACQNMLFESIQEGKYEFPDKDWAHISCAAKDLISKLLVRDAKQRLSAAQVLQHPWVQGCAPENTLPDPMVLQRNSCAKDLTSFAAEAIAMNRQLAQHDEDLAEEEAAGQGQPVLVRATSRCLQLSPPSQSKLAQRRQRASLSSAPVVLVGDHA

Full-length human MNK1, sequence (Q9BUB5 1-424 isoform Q9BUB5-2 T344D): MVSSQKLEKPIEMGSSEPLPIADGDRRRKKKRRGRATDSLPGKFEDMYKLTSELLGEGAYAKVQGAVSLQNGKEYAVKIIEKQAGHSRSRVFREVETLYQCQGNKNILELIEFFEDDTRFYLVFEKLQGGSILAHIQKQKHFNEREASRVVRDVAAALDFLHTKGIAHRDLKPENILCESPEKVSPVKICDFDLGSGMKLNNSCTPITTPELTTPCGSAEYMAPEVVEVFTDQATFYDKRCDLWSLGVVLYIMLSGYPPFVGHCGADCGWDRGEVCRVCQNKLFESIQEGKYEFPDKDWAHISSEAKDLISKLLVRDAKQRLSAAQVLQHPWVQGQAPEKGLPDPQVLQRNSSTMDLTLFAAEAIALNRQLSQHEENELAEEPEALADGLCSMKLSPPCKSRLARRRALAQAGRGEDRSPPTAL

Regarding `CC(=O)C1=C(O)C=C2Oc3c(C(N)=O)c(O)cc(O)c3[C@]2(C)C1=O` [cercosporamide], the “outgrowth of B16 melanoma lung metastases” value in assay [1] is “suppressing the outgrowth”. Besides, the “time to effectively block eIF4E phosphorylation” value in assay [2] was at most 30 min. For the same compound, the tumor growth entry in assay [3] is recorded as “reducing tumor growth”.
As for `Nc1ncnc2n[nH]c(Nc3ccc(F)cc3)c12` [CGP57380], in assay [4], the TNF-production result is recorded as “reduced TNF-production”; the “expression of IL-1β and IL-6” value is “decreased expression”. For the same compound, in assay [5], the “block of release of IL-1β and IL-8 induced by Shiga toxin” value is listed as 73-96%.
For the compound `CC(C)Oc1cc(F)ccc1Nc1ncnc2cc(C(=O)NCCN3CCNCC3)n(C)c12` [Example 42, 4-{[4-Fluoro-2-(propan-2-yloxy)phenyl]amino}-5-methyl-N-[2-(piperazin-1-yl)ethyl]-5H-pyrrolo[3,2-d]pyrimidine-6-carboxamide], the IC50 in assay [6] was 100 nM; in assay [7], 50.1 nM; in assay [8], 50.1 nM.
With `CO[C@@H]1CCC[C@H](Oc2cc(F)ccc2Nc2ncnc3ccn(C)c23)C1` [Example 21, N-[4-fluoro-2-[(1S,3R)-3-methoxycyclohexoxy]phenyl]-5-methyl-pyrrolo[3,2-d]pyrimidin-4-amine], the IC50 in assay [6] is 25.1 nM; in assay [7], 158 nM; in assay [8], 79.4 nM.
Take `Cn1ccc2ncnc(Nc3ccc(F)cc3O[C@H]3CCCC[C@@H]3O)c21` [Example 36, (1S,2S)-2-[5-fluoro-2-[(5-methylpyrrolo[3,2-d]pyrimidin-4-yl)amino]phenoxy]cyclohexanol]: the IC50 in assay [6] is 39.8 nM; in assay [7], 794 nM; in assay [8] it was 251 nM.
Taken in the same sequence, the figures for `CC(C)Oc1cc(F)ccc1Nc1ncnc2ccn(C(C)C)c12` [Example 3, N-(4-fluoro-2-isopropoxy-phenyl)-5-isopropyl-pyrrolo[3,2-d]pyrimidin-4-amine] were 158 nM, 1000 nM and 501 nM.
Taken in the same sequence, the figures for `CO[C@H]1CCC[C@@H](Oc2cc(F)ccc2Nc2ncnc3ccn(C)c23)C1` [Example 20, N-[4-fluoro-2-[(1R,3S)-3-methoxycyclohexoxy]phenyl]-5-methyl-pyrrolo[3,2-d]pyrimidin-4-amine] were 200 nM, 3160 nM and 631 nM.
The matching figures for `Cn1ccc2ncnc(Nc3ccc(F)cc3OC3CCOCC3)c21` [Example 13, N-(4-fluoro-2-tetrahydropyran-4-yloxy-phenyl)-5-methyl-pyrrolo[3,2-d]pyrimidin-4-amine]: 63.1 nM, 316 nM and 158 nM.
As for `CC(C)Oc1cc(Cl)ccc1Nc1ncnc2ccn(C)c12` [Example 9, N-(4-chloro-2-isopropoxy-phenyl)-5-methyl-pyrrolo[3,2-d]pyrimidin-4-amine], the IC50 is 79.4 nM in assay [6], 158 nM in assay [7] and 79.4 nM in assay [8].
Regarding `Cc1ccc(Nc2ncnc3ccn(C)c23)c(OC(C)C)c1` [Example 8, N-(2-isopropoxy-4-methyl-phenyl)-5-methyl-pyrrolo[3,2-d]pyrimidin-4-amine], the IC50 was 501 nM in assay [6], 3160 nM in assay [7] and 1260 nM in assay [8].
The matching figures for `COCCn1ccc2ncnc(Nc3ccc(F)cc3OC(C)C)c21` [Example 5, N-(4-fluoro-2-isopropoxy-phenyl)-5-(2-methoxyethyl)pyrrolo[3,2-d]pyrimidin-4-amine]: 1000 nM, 3160 nM and 2000 nM.
The matching figures for `CC(C)Oc1ncccc1Nc1ncnc2ccn(C)c12` [Example 29, N-(2-isopropoxy-3-pyridyl)-5-methyl-pyrrolo[3,2-d]pyrimidin-4-amine]: 50.1 nM, 251 nM and 100 nM.
Taken in the same sequence, the figures for `CCn1ccc2ncnc(Nc3ccc(F)cc3OC(C)C)c21` [Example 1, 5-Ethyl-N-(4-fluoro-2-isopropoxy-phenyl)pyrrolo[3,2-d]pyrimidin-4-amine] were 50.1 nM, 200 nM and 126 nM.
For the compound `COc1ncccc1Nc1ncnc2ccn(C)c12` [Example 35, N-(2-methoxy-3-pyridyl)-5-methyl-pyrrolo[3,2-d]pyrimidin-4-amine], the IC50 was 1000 nM in assay [6], 1580 nM in assay [7] and 1260 nM in assay [8].
As for `CC(C)Oc1cc(F)ccc1Nc1ncnc2cc[nH]c12` [Example 45, N-(4-fluoro-2-isopropoxy-phenyl)-5H-pyrrolo[3,2-d]pyrimidin-4-amine], the IC50 in assay [6] was 501 nM; in assay [7], 126 nM; in assay [8], 79.4 nM.
The matching figures for `CO[C@H]1CCCC[C@@H]1Oc1cc(F)ccc1Nc1ncnc2ccn(C)c12` [Example 37, N-[4-fluoro-2-[(1S,2S)-2-methoxycyclohexoxy]phenyl]-5-methyl-pyrrolo[3,2-d]pyrimidin-4-amine]: 251 nM, 15800 nM and 794 nM.
Taken in the same sequence, the figures for `CC(C)Oc1c(Nc2ncnc3ccn(C)c23)ccc(F)c1F` [Example 32, N-(3,4-difluoro-2-isopropoxy-phenyl)-5-methyl-pyrrolo[3,2-d]pyrimidin-4-amine] were 794 nM, 2000 nM and 1000 nM.
In the case of `CC(CF)Oc1cc(F)ccc1Nc1ncnc2ccn(C)c12` (racemic) [Example 26, Racemic-N-[4-fluoro-2-(2-fluoro-1-methyl-ethoxy)phenyl]-5-methyl-pyrrolo[3,2-d]pyrimidin-4-amine], the IC50 in assay [6] is 15.8 nM; in assay [7] it was 79.4 nM; in assay [8], 31.6 nM.
The matching figures for `CCOc1ncccc1Nc1ncnc2ccn(C)c12` [Example 34, N-(2-ethoxy-3-pyridyl)-5-methyl-pyrrolo[3,2-d]pyrimidin-4-amine]: 126 nM, 398 nM and 251 nM.
The matching figures for `C[C@@H](CF)Oc1cc(F)ccc1Nc1ncnc2ccn(C)c12` [Example 22, N-[4-fluoro-2-[(1S)-2-fluoro-1-methyl-ethoxy]phenyl]-5-methyl-pyrrolo[3,2-d]pyrimidin-4-amine]: 15.8 nM, 100 nM and 50.1 nM.
The matching figures for `Cn1ccc2ncnc(Nc3ccc(F)cc3O[C@@H]3CCOC3)c21` [Example 16, N-[4-fluoro-2-[(3R)-tetrahydrofuran-3-yl]oxy-phenyl]-5-methyl-pyrrolo[3,2-d]pyrimidin-4-amine]: 79.4 nM, 251 nM and 126 nM.
In the case of `CCOc1cc(F)ccc1Nc1ncnc2ccn(C)c12` [Example 30, N-(2-ethoxy-4-fluoro-phenyl)-5-methyl-pyrrolo[3,2-d]pyrimidin-4-amine], the IC50 was 63.1 nM in assay [6], 200 nM in assay [7] and 126 nM in assay [8].
The matching figures for `Cn1ccc2ncnc(Nc3ccc(F)cc3OC3CC3)c21` [Example 24, N-[2-(cyclopropoxy)-4-fluoro-phenyl]-5-methyl-pyrrolo[3,2-d]pyrimidin-4-amine]: 79.4 nM, 501 nM and 200 nM.
The matching figures for `CCCn1ccc2ncnc(Nc3ccc(F)cc3OC(C)C)c21` [Example 2, N-(4-fluoro-2-isopropoxy-phenyl)-5-propyl-pyrrolo[3,2-d]pyrimidin-4-amine]: 158 nM, 501 nM and 398 nM.
